Target: Endothelin-1 receptor (Rattus norvegicus) (UniProt P26684)
Experiment: Ability to inhibit [125I]ET1 binding to vascular smooth muscle (vsm)- A10 cells

Chain of Endothelin-1 receptor (Rattus norvegicus) (P26684 whole entry, looked up): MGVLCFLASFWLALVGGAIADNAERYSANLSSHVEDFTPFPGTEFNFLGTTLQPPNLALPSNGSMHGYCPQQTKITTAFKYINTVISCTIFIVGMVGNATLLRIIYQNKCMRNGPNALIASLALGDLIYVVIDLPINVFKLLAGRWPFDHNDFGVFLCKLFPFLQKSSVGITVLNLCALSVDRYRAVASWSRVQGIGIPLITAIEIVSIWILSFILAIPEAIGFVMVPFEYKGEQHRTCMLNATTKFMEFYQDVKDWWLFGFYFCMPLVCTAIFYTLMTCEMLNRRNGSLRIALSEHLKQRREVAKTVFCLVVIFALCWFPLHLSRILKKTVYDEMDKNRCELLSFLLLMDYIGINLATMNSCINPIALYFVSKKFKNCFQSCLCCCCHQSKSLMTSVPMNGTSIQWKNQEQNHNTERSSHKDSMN

Going from `Cc1cc(NS(=O)(=O)c2ccc(N)cc2)on1` [4-Amino-N-(3-methyl-isoxazol-5-yl)-benzenesulfonamide] to `Cc1noc(NS(=O)(=O)c2ccc(C#N)cc2)c1C` [4-Cyano-N-(3,4-dimethyl-isoxazol-5-yl)-benzenesulfonamide], the IC50 rises from 28 µM to greater than 32 µM. The first is the more potent here.

Compared with `Cc1noc(NS(=O)(=O)c2ccc(NCc3ccccc3)cc2)c1C` [4-Benzylamino-N-(3,4-dimethyl-isoxazol-5-yl)-benzenesulfonamide], `CCCNc1ccc(S(=O)(=O)Nc2onc(C)c2C)cc1` [N-(3,4-Dimethyl-isoxazol-5-yl)-4-propylamino-benzenesulfonamide] is 2.8-fold higher in IC50: 9.8 µM for the first, 27 µM for the second. The first is the more potent here.

Compared with `Cc1noc(NS(=O)(=O)c2ccc(N(C)C)cc2)c1C` [4-Dimethylamino-N-(3,4-dimethyl-isoxazol-5-yl)-benzenesulfonamide], `Cc1noc(NS(=O)(=O)c2cccc3c(CN(C)C)cccc23)c1C` [5-Dimethylaminomethyl-naphthalene-1-sulfonic acid (3,4-dimethyl-isoxazol-5-yl)-amide] is 30-fold lower in IC50: 84 µM for the first, 2.8 µM for the second.

Target: not listed separately
Experiment: Selectivity for the ET-A receptor over ETB receptor was observed in rat cerebellar membranes

With `Cc1noc(NS(=O)(=O)c2cccc3c(N(C)C)cccc23)c1C` [BMS-182874] the Ki was greater than 200 µM.

From BindingDB's records for doi:10.1021/jm00029a001 (Bristol-Myers Squibb Pharmaceutical Research Institute, 1994)
